Calls of active or inactive are those of the source. Rule as the data show it, for most assays here: actives have a measured EC50 and inactives only a lower limit.
What was measured:
[1] = target: T1, Heat shock factor protein 1 (Mus musculus, UniProt P38532); experiment: inhibition of MG132-induced HSE-luciferase signal, confirmation, cell-based, NIH3T3, luminescence, dose retest (AID 2382); type: functional;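 also: NIH3T3 fibroblasts with HSF1-driven luciferase reporter stressed by proteasome inhibitor MG132; luminescence from HSF1-driven luciferase expression after 8 hours of MG132 stress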
T1 sequence (P38532 whole entry): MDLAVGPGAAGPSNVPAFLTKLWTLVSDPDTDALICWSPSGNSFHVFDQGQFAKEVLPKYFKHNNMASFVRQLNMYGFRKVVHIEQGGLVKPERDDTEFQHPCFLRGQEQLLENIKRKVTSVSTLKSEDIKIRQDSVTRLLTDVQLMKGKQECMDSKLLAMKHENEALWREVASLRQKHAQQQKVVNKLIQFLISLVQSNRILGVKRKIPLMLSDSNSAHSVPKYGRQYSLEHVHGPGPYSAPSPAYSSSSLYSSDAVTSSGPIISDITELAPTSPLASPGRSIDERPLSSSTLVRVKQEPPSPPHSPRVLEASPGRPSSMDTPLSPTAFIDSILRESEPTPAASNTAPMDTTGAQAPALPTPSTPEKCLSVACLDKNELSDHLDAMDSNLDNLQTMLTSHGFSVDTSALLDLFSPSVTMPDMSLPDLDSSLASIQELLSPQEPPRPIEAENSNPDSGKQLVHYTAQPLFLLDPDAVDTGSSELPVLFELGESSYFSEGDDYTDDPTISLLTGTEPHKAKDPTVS

Fatty acid synthase = Fatty acid synthase (Homo sapiens, UniProt P49327); experiment: FAS thioesterase domain inhibitors, dose response, biochemical, kinetic fluorescence intensity (AID 624326); type: functional;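 also: rate of fluorescence rise from hydrolysis of a fluorogenic O-methyl fluorescein ester substrate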
Streptokinase A = target: T2, Streptokinase A (Streptococcus pyogenes serotype M1, UniProt P10520); experiment: S. pyogenes streptokinase expression inhibitors, potency, dose response, plasminogen activation absorbance, OD405 (AID 1914); type: functional, Streptococcus pyogenes M1 GAS;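 also: secreted streptokinase activity via plasminogen activation per viability signal from cell pellet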
T2 sequence (P10520 whole entry): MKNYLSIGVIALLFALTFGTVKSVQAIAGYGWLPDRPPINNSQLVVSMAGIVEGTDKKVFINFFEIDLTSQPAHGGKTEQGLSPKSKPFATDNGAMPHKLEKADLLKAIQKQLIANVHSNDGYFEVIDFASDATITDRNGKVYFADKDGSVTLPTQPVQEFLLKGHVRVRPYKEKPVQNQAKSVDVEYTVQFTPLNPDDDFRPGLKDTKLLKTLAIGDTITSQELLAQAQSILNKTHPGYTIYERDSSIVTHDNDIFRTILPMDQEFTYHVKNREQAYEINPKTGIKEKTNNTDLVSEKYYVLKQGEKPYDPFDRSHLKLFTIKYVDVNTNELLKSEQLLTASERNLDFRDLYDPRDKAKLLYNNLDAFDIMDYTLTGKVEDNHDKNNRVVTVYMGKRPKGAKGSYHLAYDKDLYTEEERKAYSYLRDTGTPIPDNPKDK

Fatty acid synthase, sequence (P49327 whole entry, the tested form may be a part): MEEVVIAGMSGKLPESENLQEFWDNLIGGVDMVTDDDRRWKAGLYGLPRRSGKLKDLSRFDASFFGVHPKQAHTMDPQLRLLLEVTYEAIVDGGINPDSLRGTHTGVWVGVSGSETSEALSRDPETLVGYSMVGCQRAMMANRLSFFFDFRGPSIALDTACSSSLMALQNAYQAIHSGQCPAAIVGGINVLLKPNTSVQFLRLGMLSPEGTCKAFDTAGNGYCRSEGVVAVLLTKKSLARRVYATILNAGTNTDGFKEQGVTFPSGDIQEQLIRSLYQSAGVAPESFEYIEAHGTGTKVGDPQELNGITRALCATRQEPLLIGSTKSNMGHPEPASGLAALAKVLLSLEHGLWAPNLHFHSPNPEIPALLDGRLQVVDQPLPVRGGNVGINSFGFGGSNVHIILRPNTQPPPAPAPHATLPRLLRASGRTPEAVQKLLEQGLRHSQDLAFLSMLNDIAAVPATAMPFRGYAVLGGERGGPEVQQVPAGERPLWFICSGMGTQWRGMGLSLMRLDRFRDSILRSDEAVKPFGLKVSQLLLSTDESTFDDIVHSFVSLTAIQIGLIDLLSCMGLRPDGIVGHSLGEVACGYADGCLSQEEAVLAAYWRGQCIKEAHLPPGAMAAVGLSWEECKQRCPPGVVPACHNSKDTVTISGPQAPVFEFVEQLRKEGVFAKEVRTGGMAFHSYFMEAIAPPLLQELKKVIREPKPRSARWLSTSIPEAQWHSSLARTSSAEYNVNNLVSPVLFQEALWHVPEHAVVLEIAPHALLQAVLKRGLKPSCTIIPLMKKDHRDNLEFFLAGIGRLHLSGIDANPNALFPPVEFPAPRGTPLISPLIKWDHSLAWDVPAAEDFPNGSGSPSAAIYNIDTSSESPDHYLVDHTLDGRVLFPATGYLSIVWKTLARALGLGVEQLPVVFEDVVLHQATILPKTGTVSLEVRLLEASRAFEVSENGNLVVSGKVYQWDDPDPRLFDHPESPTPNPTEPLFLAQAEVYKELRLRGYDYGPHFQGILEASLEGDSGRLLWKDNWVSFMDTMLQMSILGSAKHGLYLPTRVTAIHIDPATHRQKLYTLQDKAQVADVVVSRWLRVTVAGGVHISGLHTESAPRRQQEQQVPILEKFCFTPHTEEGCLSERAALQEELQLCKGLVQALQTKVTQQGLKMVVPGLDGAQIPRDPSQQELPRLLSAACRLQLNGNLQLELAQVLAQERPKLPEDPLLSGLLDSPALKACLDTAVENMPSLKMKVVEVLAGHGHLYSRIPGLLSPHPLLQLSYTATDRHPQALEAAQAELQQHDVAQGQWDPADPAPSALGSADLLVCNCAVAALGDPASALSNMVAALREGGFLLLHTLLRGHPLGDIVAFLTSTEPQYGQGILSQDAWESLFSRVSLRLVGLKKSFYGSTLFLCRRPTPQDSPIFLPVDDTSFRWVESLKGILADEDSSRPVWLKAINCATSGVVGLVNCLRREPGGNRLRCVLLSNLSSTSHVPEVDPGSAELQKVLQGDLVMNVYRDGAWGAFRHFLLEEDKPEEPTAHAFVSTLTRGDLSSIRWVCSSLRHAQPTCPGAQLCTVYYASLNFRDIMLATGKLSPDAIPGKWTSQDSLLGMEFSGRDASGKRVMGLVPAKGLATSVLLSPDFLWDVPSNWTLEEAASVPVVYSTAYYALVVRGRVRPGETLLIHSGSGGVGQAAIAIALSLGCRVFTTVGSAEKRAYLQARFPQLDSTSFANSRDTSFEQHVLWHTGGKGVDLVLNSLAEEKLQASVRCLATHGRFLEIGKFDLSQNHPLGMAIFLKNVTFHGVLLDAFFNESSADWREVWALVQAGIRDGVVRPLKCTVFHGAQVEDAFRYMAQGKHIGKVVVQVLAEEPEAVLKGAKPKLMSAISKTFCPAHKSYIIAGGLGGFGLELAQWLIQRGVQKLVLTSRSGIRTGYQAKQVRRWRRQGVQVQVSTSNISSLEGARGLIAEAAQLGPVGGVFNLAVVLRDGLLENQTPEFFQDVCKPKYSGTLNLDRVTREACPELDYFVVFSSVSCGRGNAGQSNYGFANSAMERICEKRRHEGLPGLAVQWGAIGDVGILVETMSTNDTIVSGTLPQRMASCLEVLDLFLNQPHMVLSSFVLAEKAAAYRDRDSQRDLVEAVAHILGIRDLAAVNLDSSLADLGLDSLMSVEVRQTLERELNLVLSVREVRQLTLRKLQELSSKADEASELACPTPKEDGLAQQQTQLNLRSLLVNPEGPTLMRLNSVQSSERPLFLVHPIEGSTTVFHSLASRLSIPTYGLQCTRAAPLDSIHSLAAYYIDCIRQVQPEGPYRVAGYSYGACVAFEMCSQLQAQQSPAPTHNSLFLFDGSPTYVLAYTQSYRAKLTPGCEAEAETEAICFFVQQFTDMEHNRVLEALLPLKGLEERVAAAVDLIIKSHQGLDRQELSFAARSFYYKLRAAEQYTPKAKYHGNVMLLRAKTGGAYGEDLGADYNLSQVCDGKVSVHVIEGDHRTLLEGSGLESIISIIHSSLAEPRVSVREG

Cc1oc2c(c1C(=O)NCc1cccnc1)C(=O)c1ccccc1C2=O
EC50 [1]: 0.304 µM (active)

O=c1ccc2c(-c3ccccc3S(=O)(=O)O)c3ccc(O)c(O)c3oc-2c1O [PYROGALLOL RED]
IC50 (Fatty acid synthase): 10.4 µM (active)

CCCCCCCCCCOC(=O)C[n+]1c(COc2ccccc2OC)n(C)c2ccccc21
EC50 (Streptokinase A): > 150 µM (not active)
